From patent publication US20220297126A1, “Microfluidic Pipette Aspirators for Large-Scale Analysis of Single Cells, Clusters and Their Sub-Populations” (Texas Tech University System, priority 2019, published 2022)
Counter-ions that a name gives are not always drawn.

Legend:
Assay type in all cases: cell-based
MCF-7 cells = test: Identifying the state of drug treated cells (apoptotic, non-proliferating/quiescent, proliferating) in the microfluidic device; conditions: for cells identified as quiescent: 48 hours
Protocol: (§1) Drug Assays. Drug assays were conducted on the tumor cells trapped in the microfluidic device. Food and Drug Administration (FDA) approved chemotherapeutic medication Doxorubicin hydrochloride (Dox, Sigma Aldrich) was used on these cells. Dox was diluted with WFI (water for injection) for cell culture (Gibco) to make a 1 mM Dox solution and it was stored at 4° C. This stock solution of Dox was diluted to 100 μM using DMEM, and further 10-fold serial dilutions were done using DMEM or 1× Annexin Binding Buffer (Life technologies) to obtain the desired concentrations of 100 μM, 10 μM, 1 μM, 0.1 μM, 0.01 μM and 0.001 μM. For all experiments, Dox was prepared freshly by diluting it to 100 μM using DMEM and further dilutions were done to achieve the desired concentrations of Dox. The mixing of Dox with the cell samples and loading them in the microfluidic device was done within 2 minutes, followed by imaging of the loaded sample in the microfluidic device. After imaging the microfluidic device, it was incubated in 37° C. and 5% CO2 environment.
(§2) Cell staining, viability and apoptosis detection. Proliferation of cells in the microfluidic chip was monitored using CellTracker™ Green CMFDA dye (Life technologies). These counts were validated without staining and by using NucBlue™ Live ReadyProbes™ Reagent (Life technologies) to identify the cell nuclei and thus quantifying the cell counts. LIVE/DEAD® Cell Imaging Kit (Life technologies) was used to analyze viability of cells. The stain was made according to the manufacturer's protocol and was used to identify the live and dead cells. Alexa Fluor® 488 Annexin V (Life technologies) was used for detection of apoptosis. The cell sample and Dox dilution was done using 1× Annexin Binding Buffer (Life technologies). 100 μL of sample was prepared (80 μL cell sample+10 μL Annexin V+10 μL Dox) for conducting drug assays. The final concentrations of the Dox in 100 μL sample were 0.01 μM, 0.001 μM and 0.0001 μM. This sample was incubated at 37° C. and 5% CO2 for 30 minutes before loading in the microfluidic device. The images were taken at different time points for different studies. The microfluidic device was stored in the incubator at 37° C. and 5% CO2 between different image time points.
(§3) Identifying the state of drug treated cells. […] These single cells can exist in an apoptotic state or a non-proliferative (quiescent) state. Thus, identifying the state of the cell can give overall information about the drug resistance of cancer cells.
(§4) The apoptotic cells are dead cells; and the non-proliferating cells are the drug resistant cells which are live and have very low proliferative potential. The proliferating cells are also drug resistant cells, which multiply despite of the presence of drug. The drug response for these trapped cells is assessed at 0, 6, 12, 24, 48 hours at 0.01 μM, 0.001 μM and 0.0001 μM concentrations of Dox.
(§5) At the end of 48 hours, the non-proliferative cells were identified as quiescent cells. […] Similarly, 23%, 34% and 10% of cells were identified as quiescent for 0.01 μM, 0.001 μM and 0.0001 μM of dox and MB-231.

MB-231 cells = test: as above; conditions: for cells identified as quiescent: 48 hours
Protocol: as §1, §2, §3, §4, §5

MB-231 single cells = test: Proliferation of single cells in the microfluidic device in the presence of Dox
Protocol: as §1
(§6) Experimental Protocol. The experimental setup for single cell isolation consists of the microfluidic device, 200 μL single channel pipette (Eppendorf) and a motorized inverted system microscope (Olympus IX81). A sample of 2000 cells in 100 μL was loaded in the 6 mm reservoir (inlet) in the microfluidic device. A 200 μL single channel pipette was set at the 1 mm outlet and it was used to aspirate the cell sample. Flow is generated from the inlet reservoir due to the aspiration pressure and passes through the trapping array. As soon as a cell enters into the parking spots, it gets trap there due to the obstacle pillar. This setup is shown the by schematic in FIG. 2A.
(§7) The MCF-7 cells are tagged using a green fluorescent dye CMFDA (Life technologies) and are trapped in the microfluidic device using the same protocol. […] Media was added in the hydrodynamic height added on the reservoir to keep the cells from getting displaced from the parking spots. All the cell samples including the drug treated cells were handled with the same experimental procedure. The loading time of the cells after cell sample preparation is ˜5 seconds. The hydrodynamic height for the drug treated samples was given by media of corresponding drug concentration.
as §2
(§8) To understand the effect of different concentrations of dox on viability of single cells, the inventors conducted a dose response cell viability assay in the microfluidic device. […] From this viability curve, three concentrations were selected to study the proliferation potential of drug resistant MCF-7 and MB-231 single cells. As the […] on the proliferation rate, the lowest three concentrations were selected for this study. […]

MCF-7 single cells = test: as above; conditions: time not restated (period of 48 hours)
Protocol: as §1, §6, §7, §2, §8

MB231 cells = test: Mechanical characterization (Young's modulus) of drug treated cells in the μFPA device; conditions: FIG. 12A
Protocol: Total 1440 traps, 150 μL Inlet reservoir, Aspiration channel dimension 5×5×35 μm^3. In these figures, a schematic of the complete design. It has an inlet reservoir for holding cell sample. The inlet channel divides into 8 channels and all of them have dead ends. Aspiration traps are place on both sides of the inlet channels. Outlets of two aspiration arrays comes into an outlet channel. Except the first and last outlet channel where a single aspiration has outlets. It has total 1440 traps. This is the snapshot of the PDMS device. In the SEM image you can have a sense of the larger dimension of inlet and outlet channels compared to the aspiration channels.
FIGS. 10A to 10C show the mechanical characterization of cells in the device of the present invention.
FIGS. 12A and 12B show the sensitivity of different cells (MB231 and MCF7) to different drugs (blebbistatin and paclitaxel), and the Young's modulus of the cells. […] Also, cell cycle phases have altered cytoskeletal scaffold. Thus, the μFPA device is sensitive enough to measure cytoskeletal alterations caused by drug interventions and cell cycle phase.

Structure (SMILES)	cells show drug resistance (MCF-7 cells; MCF-7, 0.0001 μM dox) [%]	cells identified as quiescent (MCF-7 cells; MCF-7, 0.0001 μM dox) [%]	cells show drug resistance (MCF-7 cells; MCF-7, 0.001 μM dox) [%]	cells identified as quiescent (MCF-7 cells; MCF-7, 0.001 μM dox) [%]	cells show drug resistance (MCF-7 cells; MCF-7, 0.01 μM dox) [%]	cells identified as quiescent (MCF-7 cells; MCF-7, 0.01 μM dox) [%]	cells show drug resistance (MB-231 cells; MB-231, 0.0001 μM dox) [%]	cells identified as quiescent (MB-231 cells; MB-231, 0.0001 μM dox) [%]	cells show drug resistance (MB-231 cells; MB-231, 0.001 μM dox) [%]	cells identified as quiescent (MB-231 cells; MB-231, 0.001 μM dox) [%]	cells show drug resistance (MB-231 cells; MB-231, 0.01 μM dox) [%]	cells identified as quiescent (MB-231 cells; MB-231, 0.01 μM dox) [%]	cells proliferated (MB-231 single cells; MB-231, 0.0001 μM dox, time not restated (period of 48 hours)) [%]	cells proliferated (MB-231 single cells; MB-231, 0.001 μM dox, time not restated (period of 48 hours)) [%]	cells proliferated (MB-231 single cells; MB-231, 0.01 μM dox, at the end of 48 hours) [%]	cells proliferated (MB-231 single cells; MB-231, 0.01 μM dox, in 24 hours) [%]	cells underwent proliferation (MCF-7 single cells; MCF-7, 0.0001 μM Dox) [%]	cells underwent proliferation (MCF-7 single cells; MCF-7, 0.001 μM Dox) [%]	cells underwent proliferation (MCF-7 single cells; MCF-7, 0.01 μM Dox) [%]	cytoskeletal alteration seen as Young's modulus of the cells vs control (MB231 cells)
COc1cccc2c1C(=O)c1c(O)c3c(c(O)c1C2=O)C[C@@](O)(C(=O)CO)C[C@@H]3O[C@H]1C[C@H](N)[C@H](O)[C@H](C)O1 [Dox, Doxorubicin hydrochloride]	~90	6	~75	10	~60	8	~85	10	~80	34	~60	23	~70	~50	~40	~20	~80	~60	~45	
CC(=O)O[C@H]1C(=O)[C@@]2(C)[C@H]([C@H](OC(=O)c3ccccc3)[C@]3(O)C[C@H](OC(=O)[C@H](O)[C@@H](NC(=O)c4ccccc4)c4ccccc4)C(C)=C1C3(C)C)[C@]1(OC(C)=O)CO[C@@H]1C[C@@H]2O [paclitaxel]																				cytoskeletal alternations in MB231 are induced
Cc1ccc2c(c1)C(=O)C1(O)CCN(c3ccccc3)C1=N2 (stereo not drawn) [blebbistatin]																				cytoskeletal alternations in MB231 are induced
